Measurements as given in ChEMBL document CHEMBL1142633, “A cytotoxic lobane diterpene from the formosan soft coral Sinularia inelegans” (2000).
In brackets after ≈: the same amount, converted by molar mass.

Key:
[1] = tested on: P388; experiment: Cytotoxicity against mouse P388 cells; type: functional
[2] = tested on: A549; experiment: Cytotoxicity against human A549 cells; type: functional

C=C[C@@]1(C)CC[C@H](/C(C)=C\CCC(=C)C)C[C@@H]1C(=C)C [INELEGANENE]
GI50 [1]: 0.2 µg/mL (≈ 0.734 µM)
GI50 [2]: 3.63 µg/mL (≈ 13.3 µM)
